Data published in patent publication US20070178152A1, “Carboxyalkylcellulose esters for administration of poorly soluble pharmaceutically active agents” (priority 2005, published 2007).
Where “and” joins values, the source holds several entries; their conditions need not be identical. Equal entries are not always repeated. Blank lines part the entries; values can stand above or below the compound they belong to.

Legend:
[1] = Determination of % crystallinity by X-ray; format: physicochemical
Experimental: Determination of % Crystallinity by X-ray.
All samples were run on a Scintag PAD V diffractometer using Cu K-alpha X-ray.
For each polymer or drug used in this study a neat sample was obtained. A known weight of each species was mixed with a know weight of corundum, Al2O3, diffraction standard. Each mixture was pelletized with a hydraulic press and the XRD pattern of the pellet was measured from 5 to 45 degree scattering angle. A diffraction response factor, R, was calculated for each species according to: R=wc/ws*ls/lc where wc id the weight fraction of corundum, ws is the weight fraction of the species of interest, lc is the net intensity of the major diffraction line of corrundum and is the net intensity of the major diffraction line of the drug or in the case of the polymers, the net intensity of the maximum of the amorphous scattering curve.
Samples were pelletized with a hydraulic press and the XRD pattern of the pellet was measured from 5 to 45 degree scattering angle. The net intensity of the maximum of the amorphous scatter from the polymer, lp, and the net intensity of the major diffraction line of the drug, ld, were determined from the resulting scattering curve. The wt % crystalline drug was calculated from: % crystalline drug=(ld/Rd)/(ld/Rd+lp/Rp)×100 where Rd is the response factor for the drug and Rp is the response factor for the polymer.

[2] = Dissolution of carbamazepine and carbamazepine solid dispersions in SIFsp, pH 6.8; format: physicochemical; conditions: for % Drug Released / Total Drug Released: SIFsp pH 6.8, gelatin capsule; for Average % Released: carbamazepine
Experimental: All dissolution studies were performed on a Varian VK7025 Dissolution Apparatus equipped with a Varian VK8000 Fraction Collector
HPLC Methods for Evaluating Dissolution Aliquots:
Determination of Weight % Phenytoin, Carbamazepine, Glyburide, or Griseofulvin.
Mobile Phase: 55% acetonitrile/45% ammonium acetate buffer (2.6 g NH4OAc/L H2O with pH adjusted to pH˜5.25 with glacial acetic acid)
Column: Agilent Eclipse XDB-C8, 4.6 mm×150 mm×5 μm
Detection: UV 254 nm (UV 214 nm can also be used for phenytoin or carbamazepine, UV 291 nm can also be used for griseofulvin); typically five signals were selected from UV 214 nm, 222 nm, 254 nm, 287 nm, 291 nm, and/or 325 nm were collected for each sample.
Simulated Intestinal Fluid, without pancreatin, pH 6.8 (SIFsp, pH 6.8)—Added monobasic potassium phosphate (KH2PO4, 34 g) to a 4000-mL beaker. Added deionized/polished water (2000 mL) and mixed using a magnetic stir bar until the KH2PO4 is completely dissolved. Added 0.2 N sodium hydroxide (NaOH, 590 mL) and stirred. The pH was adjusted to pH 6.8±0.1 using 0.2 N NaOH. The sample was diluted with deionized/polished water to a final volume of 5000 mL.
The SIFsp media was heated to ˜45° C. in four 2000-mL Kimax bottles in an oven. The sample was degassed according to USP protocol by filtering through a 0.45 μm membrane filter (Pall, Supor-450, 0.45 μm, 90 mm, part # 60200, Lot # 43214) and stirring under vacuum for 5 minutes.
Dissolution Conditions #1.
Dissolution Conditions #2.
These Examples describe the dissolution of carbamazepine and carbamazepine solid dispersions by evaluating the samples described in Examples 91-99. SlFsp, pH 6.8 media preparation was described in the Materials and Methods section.
Samples were transferred into gelatin capsules (Capsugel, size OCS, Lot #624282) using a manual single capsule filler. The weight of each capsule and the amount of sample added are found in Table 17 (Capsule Description).

wt % Crystal (X-ray) ([1]; phenytoin/polymer solid dispersions and physical blends (Table 6)): 100 wt %
Structure (SMILES): O=C1NC(=O)C(c2ccccc2)(c2ccccc2)N1 [Example 78, Phenytoin]

wt % Crystal (X-ray) ([1]; carbamazepine/CMCAB solid dispersions and physical blends (Table 8)): 100 wt %
% Drug Released ([2]; 20 min): 33.9384% and 38.8298%
Total Drug Released ([2]; 20 min): 9.4293 mg and 10.5423 mg
% Drug Released ([2]; 30 min): 44.1249% and 55.2412%
Total Drug Released ([2]; 30 min): 12.2594 mg and 14.9980 mg
% Drug Released ([2]; 60 min): 59.6056% and 68.7527%
Total Drug Released ([2]; 60 min): 16.5605 mg and 18.6664 mg
% Drug Released ([2]; 120 min): 68.4090% and 79.5856%
Total Drug Released ([2]; 120 min): 19.0064 mg and 21.6075 mg
% Drug Released ([2]; 180 min): 67.5738% and 72.0943%
Total Drug Released ([2]; 180 min): 18.7744 mg and 19.5736 mg
% Drug Released ([2]; 240 min): 67.7652% and 72.6520%
Total Drug Released ([2]; 240 min): 18.8275 mg and 19.7250 mg
% Drug Released ([2]; 300 min): 67.6548% and 72.9162%
Total Drug Released ([2]; 300 min): 18.7969 mg and 19.7968 mg
% Drug Released ([2]; 360 min): 72.4305% and 71.9068%
Total Drug Released ([2]; 360 min): 20.1237 mg and 19.5227 mg
% Drug Released ([2]; 450 min): 67.4606% and 70.7122%
Total Drug Released ([2]; 450 min): 18.7429 mg and 19.1984 mg
Average % Released ([2]; SIFsp pH 6.8, 10 min): 6.7739%
Average % Released ([2]; SIFsp pH 6.8, 20 min): 36.3841%
Average % Released ([2]; SIFsp pH 6.8, 30 min): 49.6830%
Average % Released ([2]; SIFsp pH 6.8, 60 min): 64.1792%
Average % Released ([2]; SIFsp pH 6.8, 120 min): 73.9973%
Average % Released ([2]; SIFsp pH 6.8, 180 min): 69.8341%
Average % Released ([2]; SIFsp pH 6.8, 240 min): 70.2086%
Average % Released ([2]; SIFsp pH 6.8, 300 min): 70.2855%
Average % Released ([2]; SIFsp pH 6.8, 360 min): 72.1686%
Average % Released ([2]; SIFsp pH 6.8, 450 min): 69.0864%
Structure (SMILES): NC(=O)N1c2ccccc2C=Cc2ccccc21 [Example 95, Carbamazepine]

wt % Crystal (X-ray) ([1]; glyburide/CMCAB solid dispersions and physical blends (Table 10)): 100 wt %
Structure (SMILES): COc1ccc(Cl)cc1C(=O)NCCc1ccc(S(=O)(=O)NC(=O)NC2CCCCC2)cc1 [Example 113, Glyburide]
